# How the values were obtained:
# barnyardgrass [1] = test: Test A pre-/postemergence herbicide test; assay type: in vivo, Echinochloa crus-galli
# Summary of the method: (§1)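 Scoring was visual, relative to untreated controls, on a 0–100 scale after about 10 greenhouse days. Preemergence treatment used a directed soil spray over seeded loam/sand; postemergence treatment targeted one- to two-leaf plants of 2–10 cm.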
# kochia = test: Test A pre-/postemergence herbicide test; assay type: in vivo, Kochia scoparia; details: for Plant response rating, Kochia: 125 g ai/ha
# Summary of the method: as §1
# ragweed = test: Test A pre-/postemergence herbicide test; assay type: in vivo, Ambrosia elatior; details: for Plant response rating, Ragweed: 125 g ai/ha
# Summary of the method: as §1
# ryegrass, Italian = test: Test A pre-/postemergence herbicide test; assay type: in vivo, Lolium multiflorum; details: for Plant response rating, Ryegrass, Italian: 125 g ai/ha
# Summary of the method: as §1
# giant foxtail = test: Test A pre-/postemergence herbicide test; assay type: in vivo, Setaria faberii
# Summary of the method: as §1
# pigweed = test: Test A pre-/postemergence herbicide test; assay type: in vivo, Amaranthus retroflexus
# Summary of the method: as §1
# wheat = test: Test A pre-/postemergence herbicide test; assay type: in vivo, Triticum aestivum
# Summary of the method: as §1
# corn = test: Test A pre-/postemergence herbicide test; assay type: in vivo, Zea mays
# Summary of the method: as §1
# blackgrass = test: Test A postemergence herbicide test; assay type: in vivo, Alopecurus myosuroides
# Summary of the method: (§2)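 Plants at the one- to two-leaf stage, 2–10 cm tall, grown in loam/sand pots, received postemergence sprays of the test chemicals. After about 10 days in the greenhouse, injury was scored visually against untreated controls on a 0–100 scale (0 none, 100 complete control).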
# galium = test: Test A postemergence herbicide test; assay type: in vivo, Galium aparine; details: 125 g ai/ha, visual rating on 0 to 100 scale (0 no effect, 100 complete control), approx. 10 days
# Summary of the method: as §2
# rice [2] = test: Test B flooded paddy test; assay type: in vivo, Oryza sativa; details: Flood, scale of 0 to 100 where 0 is no effect and 100 is complete control
# Summary of the method: (§3)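 Plants were grown to the 2-leaf stage, then pots were flooded to 3 cm above the soil and compound was applied directly into the paddy water, with that depth held throughout. After 13 to 15 days in a greenhouse, injury was rated visually against untreated controls on a 0 to 100 scale (100 = complete control).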
# sedge, umbrella [3] = test: Test B flooded paddy test; assay type: in vivo, Cyperus difformis; details: Flood, scale of 0 to 100 where 0 is no effect and 100 is complete control
# Summary of the method: as §3
# ducksalad [4] = test: Test B flooded paddy test; assay type: in vivo, Heteranthera limosa; details: Flood, scale of 0 to 100 where 0 is no effect and 100 is complete control
# Summary of the method: as §3
# barnyardgrass [5] = test: Test B flooded paddy test; assay type: in vivo, Echinochloa crus-galli; details: Flood, scale of 0 to 100 where 0 is no effect and 100 is complete control
# Summary of the method: as §3
# rice [6] = test: Test C flooded paddy test; assay type: in vivo, Oryza sativa; details: Flood
# Summary of the method: (§4)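 2-leaf stage; flood 3 cm over soil; compound into paddy water; depth held; greenhouse 13–15 d; visual % control vs untreated (0 = none, 100 = complete); "-" = not tested.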
# sedge, umbrella [7] = test: Test C flooded paddy test; assay type: in vivo, Cyperus difformis; details: Flood
# Summary of the method: as §4
# ducksalad [8] = test: Test C flooded paddy test; assay type: in vivo, Heteranthera limosa; details: Flood
# Summary of the method: as §4
# barnyardgrass [9] = test: Test C flooded paddy test; assay type: in vivo, Echinochloa crus-galli; details: Flood
# Summary of the method: as §4
# crabgrass, large = test: Test A pre-/postemergence herbicide test; assay type: in vivo, Digitaria sanguinalis
# Summary of the method: as §1
# morningglory = test: Test A pre-/postemergence herbicide test; assay type: in vivo, Ipomoea spp.
# Summary of the method: as §1
# velvetleaf = test: Test A pre-/postemergence herbicide test; assay type: in vivo, Abutilon theophrasti
# Summary of the method: as §1
# [10] = Postemergence, 125 g ai/ha, visual rating on 0 to 100 scale (0 no effect, 100 complete control), approx. 10 days
# [11] = Postemergence, 500 g ai/ha, 0 to 100 scale (0 no effect, 100 complete control)
# [12] = Preemergence, 125 g ai/ha, 0 to 100 scale where 0 is no effect and 100 is complete control
# [13] = Preemergence, 500 g ai/ha, visual rating on 0 to 100 scale (0 no effect, 100 complete control)
# [14] = Postemergence, visual rating on 0 to 100 scale (0 no effect, 100 complete control), approx. 10 days
# [15] = Preemergence, 0 to 100 scale where 0 is no effect and 100 is complete control
# [16] = 125 g ai/ha, scale of 0 to 100 where 0 is no effect and 100 is complete control, 13 to 15 days
# [17] = 250 g ai/ha, scale of 0 to 100 where 0 is no effect and 100 is complete control, 13 to 15 days
# [18] = Postemergence, 125 g ai/ha, 0 to 100 scale, 0 no effect, 100 complete control
# [19] = Preemergence, 125 g ai/ha, visual rating on 0 to 100 scale (0 no effect, 100 complete control)
# [20] = preemergence, 500 g ai/ha, 0 to 100 scale
structure (smiles),measurement,setting,value
O=C1NCC(c2cccc(C(F)(F)F)c2)C1C(=O)Nc1cccc(Cl)c1F (centres unmarked) [Compound 344],"Plant response rating, Barnyardgrass",barnyardgrass [1]; [10],60
same,"Plant response rating, Barnyardgrass",barnyardgrass [1]; [11],90
same,"Plant response rating, Barnyardgrass",barnyardgrass [1]; [12],50
same,Barnyardgrass plant response rating,barnyardgrass [1]; [13],90
same,"Plant response rating, Kochia",kochia; [14],0
same,"Plant response rating, Kochia",kochia; [15],0
same,Kochia plant response rating,kochia; [13],0
same,"Plant response rating, Ragweed",ragweed; [14],0
same,"Plant response rating, Ragweed",ragweed; [15],0
same,Ragweed plant response rating,ragweed; [13],0
same,"Plant response rating, Ryegrass, Italian","ryegrass, Italian; [14]",0
same,"Plant response rating, Ryegrass, Italian","ryegrass, Italian; [15]",0
same,"Ryegrass, Italian plant response rating","ryegrass, Italian; [13]",30
same,"Plant response rating, Foxtail, Giant",giant foxtail; [10],80
same,"Plant response rating, Foxtail, Giant",giant foxtail; [11],90
same,"Plant response rating, Foxtail, Giant",giant foxtail; [12],80
same,"Foxtail, Giant plant response rating",giant foxtail; [13],90
same,"Plant response rating, Pigweed",pigweed; [10],0
same,"Plant response rating, Pigweed",pigweed; [12],0
same,Pigweed plant response rating,pigweed; [13],0
same,"Plant response rating, Wheat",wheat; [10],0
same,"Plant response rating, Corn",corn; [10],0
same,"Plant response rating, Corn",corn; [11],0
same,"Plant response rating, Blackgrass","blackgrass; 125 g ai/ha, visual rating on 0 to 100 scale (0 no effect, 100 complete control), approx. 10 days",0
same,"Plant response rating, Blackgrass","blackgrass; 500 g ai/ha, 0 to 100 scale (0 no effect, 100 complete control)",0
same,"Plant response rating, Galium",galium,0
same,"Plant response rating, Rice",rice [2]; 1000 g ai/ha,10
same,"Plant response rating, Sedge, Umbrella","sedge, umbrella [3]; 1000 g ai/ha",0
same,"Plant response rating, Ducksalad",ducksalad [4]; 1000 g ai/ha,90
same,"Plant response rating, Barnyardgrass",barnyardgrass [5]; 1000 g ai/ha,85
same,"Plant response rating, Rice",rice [6]; [16],0
same,"Plant response rating, Rice",rice [6]; [17],0
same,"Plant response rating, Rice","rice [6]; 500 g ai/ha, scale 0 to 100",0
same,"Plant response rating, Rice","rice [6]; 1000 g ai/ha, scale 0 to 100",0
same,"Plant response rating, Sedge, Umbrella","sedge, umbrella [7]; [16]",0
same,"Plant response rating, Sedge, Umbrella","sedge, umbrella [7]; [17]",0
same,"Plant response rating, Sedge, Umbrella","sedge, umbrella [7]; 500 g ai/ha, scale 0 to 100",0
same,"Plant response rating, Sedge, Umbrella","sedge, umbrella [7]; 1000 g ai/ha, scale 0 to 100",0
same,"Plant response rating, Ducksalad",ducksalad [8]; [16],50
same,"Plant response rating, Ducksalad",ducksalad [8]; [17],60
same,"Plant response rating, Ducksalad","ducksalad [8]; 500 g ai/ha, scale 0 to 100",65
same,"Plant response rating, Ducksalad","ducksalad [8]; 1000 g ai/ha, scale 0 to 100",85
same,"Plant response rating, Barnyardgrass",barnyardgrass [9]; [16],0
same,"Plant response rating, Barnyardgrass",barnyardgrass [9]; [17],35
same,"Plant response rating, Barnyardgrass","barnyardgrass [9]; 500 g ai/ha, scale 0 to 100",40
same,"Plant response rating, Barnyardgrass","barnyardgrass [9]; 1000 g ai/ha, scale 0 to 100",55
O=C1NCC(c2ccc(Cl)cc2)C1C(=O)Nc1ccccc1F (racemic) [Compound 87],"Plant response rating, Barnyardgrass",barnyardgrass [1]; [18],50
same,"Plant response rating, Barnyardgrass",barnyardgrass [1]; [11],80
same,Barnyardgrass plant response rating,barnyardgrass [1]; [19],20
same,"Plant response rating, Barnyardgrass","barnyardgrass [1]; preemergence, 500 g ai/ha, 0 to 100 scale (0 no effect, 100 complete control)",80
same,"Plant response rating, Crabgrass, Large","crabgrass, large; [18]",60
same,"Plant response rating, Crabgrass, Large","crabgrass, large; [11]",80
same,"Crabgrass, Large plant response rating","crabgrass, large; [19]",80
same,"Plant response rating, Crabgrass, Large","crabgrass, large; [20]",90
same,"Plant response rating, Foxtail, Giant",giant foxtail; [18],50
same,"Plant response rating, Foxtail, Giant",giant foxtail; [11],80
same,"Foxtail, Giant plant response rating",giant foxtail; [19],60
same,"Plant response rating, Foxtail, Giant",giant foxtail; [20],90
same,"Plant response rating, Morningglory",morningglory; [18],0
same,"Plant response rating, Morningglory",morningglory; [11],10
same,Morningglory plant response rating,morningglory; [19],0
same,"Plant response rating, Morningglory",morningglory; [20],0
same,"Plant response rating, Pigweed",pigweed; [18],0
same,"Plant response rating, Pigweed",pigweed; [11],20
same,Pigweed plant response rating,pigweed; [19],0
same,"Plant response rating, Pigweed",pigweed; [20],0
same,"Plant response rating, Velvetleaf",velvetleaf; [18],0
same,"Plant response rating, Velvetleaf",velvetleaf; [11],0
same,Velvetleaf plant response rating,velvetleaf; [19],0
same,"Plant response rating, Velvetleaf",velvetleaf; [20],0
same,"Plant response rating, Wheat",wheat; [18],0
same,"Plant response rating, Wheat",wheat; [11],20
same,Wheat plant response rating,wheat; [19],0
same,"Plant response rating, Wheat",wheat; [20],10
same,"Plant response rating, Corn",corn; [18],0
same,"Plant response rating, Corn",corn; [11],0
same,Corn plant response rating,corn; [19],0
same,"Plant response rating, Corn",corn; [20],0
same,"Plant response rating, Rice",rice [2]; 250 g ai/ha,0
same,"Plant response rating, Sedge, Umbrella","sedge, umbrella [3]; 250 g ai/ha",0
same,"Plant response rating, Ducksalad",ducksalad [4]; 250 g ai/ha,80
same,"Plant response rating, Barnyardgrass",barnyardgrass [5]; 250 g ai/ha,60
same,"Plant response rating, Rice",rice [6]; [16],0
same,"Plant response rating, Rice","rice [6]; 250 g ai/ha, scale 0 to 100",0
same,"Plant response rating, Rice","rice [6]; 500 g ai/ha, scale 0 to 100",0
same,"Plant response rating, Rice","rice [6]; 1000 g ai/ha, scale 0 to 100",30
same,"Plant response rating, Sedge, Umbrella","sedge, umbrella [7]; [16]",0
same,"Plant response rating, Sedge, Umbrella","sedge, umbrella [7]; 250 g ai/ha, scale 0 to 100",0
same,"Plant response rating, Sedge, Umbrella","sedge, umbrella [7]; 500 g ai/ha, scale 0 to 100",0
same,"Plant response rating, Sedge, Umbrella","sedge, umbrella [7]; 1000 g ai/ha, scale 0 to 100",0
same,"Plant response rating, Ducksalad",ducksalad [8]; [16],75
same,"Plant response rating, Ducksalad","ducksalad [8]; 250 g ai/ha, scale 0 to 100",95
same,"Plant response rating, Ducksalad","ducksalad [8]; 500 g ai/ha, scale 0 to 100",100
same,"Plant response rating, Ducksalad","ducksalad [8]; 1000 g ai/ha, scale 0 to 100",100
same,"Plant response rating, Barnyardgrass",barnyardgrass [9]; [16],0
same,"Plant response rating, Barnyardgrass","barnyardgrass [9]; 250 g ai/ha, scale 0 to 100",0
same,"Plant response rating, Barnyardgrass","barnyardgrass [9]; 500 g ai/ha, scale 0 to 100",25
same,"Plant response rating, Barnyardgrass","barnyardgrass [9]; 1000 g ai/ha, scale 0 to 100",40
